Several values for one entry are separate records, joined by “and”; a condition that tells them apart may be missing. Equal values may be shown once. Marks after values point to notes of the source that are not given here.
Key:
Type in all cases: cell-based
lactobacilli = test: In vitro fermentation of pig feces, lactobacilli count (Example 2); details: 200 mg/L, 24 hours
Experimental: (§1) The mean values affected by different indexes indicate significant differences (p<0.05). The vertical axis of the graph determines the log 10(cfu/g feces) and the horizontal axis determines the compound. The described assays are carried out using complete bacterial inocula obtained from feces of piglets in post-weaning stage. Two of the compounds (referenced as PTS and as PTSO) are assayed in a lower dose range (50-400 mg/L).

bifidobacteria = test: In vitro fermentation of pig feces, bifidobacteria count (Example 2); details: 200 mg/L, 24 hours
Experimental: as §1

[1] = system: microbiota of the ruminal inoculum (ruminal fluid of goats); test: In vitro ruminal degradation of experimental diets (Example 3); details: for DDM (degradability of dry matter), mean / DOM (degradability of organic matter), mean: 48 hours; for Mean DDM / Mean DOM / DDM (degradation of dry matter) / DOM (degradation of organic matter): diet D1, 24 hours
Experimental: The Effect of Different Doses of the Compounds Object of Study on the Ruminal Degradation of Two Different Diets the Composition of which is in Table 1 is Studied The diets consist of alfalfa hay (standard maintenance diet for ruminant animals) or of a mixture of 50% alfalfa hay and a commercial concentrate (standard lactation diet for ruminant animals). In vitro incubation is performed using ruminal fluid of goats as inoculum.

[2] = system: ruminal fermentation (methane-producing microorganisms); test: Production of gas by in vitro fermentation of the diets (Example 4)
Experimental: The effect of different doses of the compounds object of study on the production of gas promoted by in vitro fermentation for 24 and 48 hours of the diets the composition of which is included in Table 1 is studied.

[3] = Alfalfa hay + concentrate, 10 ppm
[4] = Alfalfa hay + concentrate, 25 ppm
[5] = Alfalfa hay + concentrate, 50 ppm
[6] = Alfalfa hay + concentrate, 300 ppm
[7] = Alfalfa hay + concentrate, 750 ppm
[8] = Alfalfa hay + concentrate, 1000 ppm
[9] = Alfalfa hay + concentrate, 2000 ppm
[10] = diet D1, 50 to 750 ppm, 24 hours in vitro incubation
[11] = diet D1, 48 hours, 10 ppm, replicates
[12] = diet D1, 48 hours, 25 ppm, replicates
[13] = diet D1, 48 hours, concentration 50, replicates
[14] = diet D1, 48 hours, concentration 300, replicates
[15] = diet D1, 48 hours, concentration 750, replicates
[16] = diet D1, 48 hours, concentration 1000, replicates
[17] = diet D2, 48 hours, 10 ppm, replicates
[18] = diet D2, 48 hours, 25 ppm, replicates
[19] = diet D2, 48 hours, concentration 50, replicates
[20] = diet D2, 48 hours, concentration 300, replicates
[21] = diet D2, 48 hours, concentration 750, replicates
[22] = diet D2, 48 hours, concentration 1000, replicates
[23] = diet D2, 48 hours, concentration 2000, replicates

propyl propylthiosulfinate [PTS]
lactobacilli logarithmic reduction in the population (lactobacilli): approximately 50% | bifidobacteria logarithmic reduction in the population (bifidobacteria): approximately 50% | DDM (degradability of dry matter), mean [1, 3]: 63.9^ab | DOM (degradability of organic matter), mean [1, 3]: 63.9^ab | DDM (degradability of dry matter), mean [1, 4]: 59.4^b | DOM (degradability of organic matter), mean [1, 4]: 59.7^b | DDM (degradability of dry matter), mean [1, 5]: 59.8^b | DOM (degradability of organic matter), mean [1, 5]: 59.8^b | DDM (degradability of dry matter), mean [1, 6]: 48.3^c | DOM (degradability of organic matter), mean [1, 6]: 47.8^c | DDM (degradability of dry matter), mean [1, 7]: 43.5^c | DOM (degradability of organic matter), mean [1, 7]: 45.5^c | DDM (degradability of dry matter), mean [1, 8]: 45.6^c | DOM (degradability of organic matter), mean [1, 8]: 45.1^c | DDM (degradability of dry matter), mean [1, 9]: 45.3^c | DOM (degradability of organic matter), mean [1, 9]: 38.7^d | DDM (degradability of dry matter), mean ([1]; Alfalfa hay, 10 ppm): 54.2^a | DOM (degradability of organic matter), mean ([1]; Alfalfa hay, 10 ppm): 54.5^a | DDM (degradability of dry matter), mean ([1]; Alfalfa hay, 25 ppm): 52.3^a | DOM (degradability of organic matter), mean ([1]; Alfalfa hay, 25 ppm): 42.9^bc | DDM (degradability of dry matter), mean ([1]; Alfalfa hay, 50 ppm): 46.6^b | DOM (degradability of organic matter), mean ([1]; Alfalfa hay, 50 ppm): 46.7^b | DDM (degradability of dry matter), mean ([1]; Alfalfa hay, 300 ppm): 40.6^c | DOM (degradability of organic matter), mean ([1]; Alfalfa hay, 300 ppm): 41.0^c | DDM (degradability of dry matter), mean ([1]; Alfalfa hay, 750 ppm): 39.6^c | DOM (degradability of organic matter), mean ([1]; Alfalfa hay, 750 ppm): 39.2^c | DDM (degradability of dry matter), mean ([1]; Alfalfa hay, 1000 ppm): 39.1^c | DOM (degradability of organic matter), mean ([1]; Alfalfa hay, 1000 ppm): 38.8^c | DDM (degradability of dry matter), mean ([1]; Alfalfa hay, 2000 ppm): 39.6^c | DOM (degradability of organic matter), mean ([1]; Alfalfa hay, 2000 ppm): 40.0^c | DDM ([1]; Table 4: diet D1, 48 hours, concentration 2000, replicates): 40.2% and 38.9% | effect on degradation of dry matter [1, 10]: reduction of the degradation of dry matter | effect on degradation of organic matter [1, 10]: do not affect | Mean DDM ([1]; 50 ppm): 37.1% | Mean DOM ([1]; 50 ppm): 38.5% | DDM (degradation of dry matter) ([1]; 50 ppm, replicates): 37.7% (2×) and 37.9% and 34.1% and 35.6% and 39.3% | DOM (degradation of organic matter) ([1]; 50 ppm, replicates): 38.0% and 38.9% | Mean DDM ([1]; 300 ppm): 37.4% | DDM (degradation of dry matter) ([1]; 300 ppm, replicates): 38.5% and 40.4% and 37.6% and 36.0% and 35.7% and 36.2% | Mean DDM ([1]; 750 ppm): 39.5% | Mean DOM ([1]; 750 ppm): 38.1% | DDM (degradation of dry matter) ([1]; 750 ppm, replicates): 40.8% and 37.7% and 43.2% and 39.5% and 37.9% and 38.0% | DOM (degradation of organic matter) ([1]; 750 ppm, replicates): 39.4% and 36.8% | DDM [1, 11]: 54.5% and 53.9% | DOM [1, 11]: 54.8% and 54.2% | DDM [1, 12]: 52.0% and 52.5% | DOM [1, 12]: 43.0% and 42.9% | DDM [1, 13]: 46.2% and 46.9% | DOM [1, 13]: 47.5% and 45.9% | DDM [1, 14]: 41.8% and 39.4% | DOM [1, 14]: 42.5% and 39.5% | DDM [1, 15]: 39.6% and 39.7% | DOM [1, 15]: 38.6% and 39.7% | DDM [1, 16]: 39.1% | DOM [1, 16]: 38.6% and 38.9% | DOM ([1]; diet D1, 48 hours, concentration 2000, replicates): 40.3% and 39.7% | DDM [1, 17]: 64.0% and 63.9% | DOM [1, 17]: 63.8% and 64.0% | DDM [1, 18]: 57.4% and 61.4% | DOM [1, 18]: 57.6% and 61.8% | DDM [1, 19]: 60.9% and 58.7% | DOM [1, 19]: 60.9% and 58.8% | DDM [1, 20]: 49.3% and 47.2% | DOM [1, 20]: 48.6% and 47.1% | DDM [1, 21]: 44.8% and 42.2% | DOM [1, 21]: 46.5% and 44.6% | DDM [1, 22]: 46.1% and 45.1% | DOM [1, 22]: 45.6% and 44.7% | DDM [1, 23]: 45.7% and 44.9% | DOM [1, 23]: 38.9% and 38.5% | inhibitory effect on production of fermentation gas, dependence on dose [2]: dose-dependent | inhibitory effect on production of fermentation gas, dependence on time ([2]; 24 and 48 hours): time-dependent | doses at which the inhibitory effect on production of fermentation gas is observed ([2]; diet D2): 10 ppm
